Legend:
monkey BCMA-MFC = experiment: SPR (Biacore 4000) binding kinetics at 25° C.
Method: (§1) The CM5 Biacore sensor surface was derivatized by amine coupling with a monoclonal mouse anti-human Fc antibody (GE, #BR-1008-39) to capture purified anti-BCMA mAbs and anti-BCMA×anti-CD3 bispecific mAbs. All Biacore binding studies were performed in a buffer composed of 0.01M HEPES pH 7.4, 0.15M NaCl, 3 mM EDTA, 0.05% v/v Surfactant P20 (HBS-ET running buffer). […] Antigen samples were then injected over the anti-BCMA and anti-BCMA×anti-CD3 bispecific mAbs captured surfaces at a flow rate of 30 μL/minute. Antibody-reagent association was monitored for 5 minutes while dissociation in HBS-ET running buffer was monitored for 10 minutes. All of the binding kinetics experiments were performed at 25° C. Kinetic association (ka) and dissociation (kd) rate constants were determined by fitting the real-time sensorgrams to a 1:1 binding model using Scrubber 2.0c curve fitting software. Binding dissociation equilibrium constants (KD) and dissociative half-lives (t1/2) were calculated from the kinetic rate constants as: […]

monkey BCMA-MMH = experiment: SPR (Biacore 4000) binding kinetics at 25° C.
Method: as §1

[1] = system: Jurkat/NFATLuc.3C7 reporter cells with HEK293 cells (BCMA negative); experiment: Jurkat/NFATLuc reporter bioassay (T-cell activation); type: cell-based, human
Method: (§2) Activity of the anti-BCMA×anti-CD3 bispecific antibodies were assessed in a Jurkat/NFATLuc reporter bioassay utilizing several cell lines with varying levels of BCMA surface expression. The Jurkat cells were engineered to express an NFAT-luciferase reporter (Jurkat/NFATLuc.3C7), and 50,000 Jurkat reporter cells were combined with 50,000 BCMA positive (Daudi, MM1-S, NCI-H929, OPM-2, RPMI-8226, MOLP-8, or Raji) or BCMA negative (HEK293) cells in Thermo Nunclon delta 96 well white microwell plates (Thermo Scientific, Cat #136102) in 50 ul of assay media (RPMI media with 10% FBS and 1% P/S/G). Three-fold serial dilutions of the BCMA×CD3 bispecific antibodies (mAb25441D or mAb25442D), or a bivalent anti-BCMA antibody (mAb21581) were immediately added in 50 uL of assay buffer. The plates were gently agitated and incubated in a 37° C., 5% CO2 incubator for 4-6 hours. NFAT-Luciferase activity was determined using Promega One-Glo (Cat #E6130) and a Perkin Elmer Envision plate reader. RLU were plotted in GraphPad Prism using a four-parameter logistic equation over a 12-point response curve to calculate EC50 values. The no antibody treatment condition for each dose-response curve is also included in the analysis as a continuation of the three-fold serial dilution and is represented as the lowest dose. The signal to noise (S:N) is determined by taking the ratio of the highest RLU on the curve to the lowest.

[2] = system: Jurkat/NFATLuc.3C7 reporter cells with MM1-S cells (BCMA positive); experiment: as above; type: cell-based, human
Method: as §2

[3] = system: Jurkat/NFATLuc.3C7 reporter cells with RPMI-8226 cells (BCMA positive); experiment: as above; type: cell-based, human
Method: as §2

[4] = system: Jurkat/NFATLuc.3C7 reporter cells with Raji cells (BCMA positive); experiment: as above; type: cell-based, human
Method: as §2

[5] = system: BCMA+ OPM-2-luciferase tumors; experiment: Xenogenic tumor model, i.v. OPM-2-luciferase in PBMC-engrafted NSG mice, bioluminescence (Example 15); type: in vivo, mouse; conditions: 0.4 mg/kg; for tumor burden: three doses; for Radiance [p/s/cm2^2/sr] 5 days post-implantation (mean ± SEM) / Radiance [p/s/cm2^2/sr] 11 days post-implantation (mean ± SEM) / Radiance [p/s/cm2^2/sr] 20 days post-implantation (mean ± SEM): before first dose (day 21)
Method: (§3) To determine the in vivo efficacy of anti-BCMA×anti-CD3 bispecific antibodies (Abs), a xenogenic tumor study was performed. On day 0, immunodeficient NOD.Cg-Prkdc^scidII2rg^tm1Wjl/SzJ (NSG) mice were intravenously administered 2×10^6 BCMA^+ OPM-2 human multiple myeloma tumor cells that were engineered to also express firefly luciferase (OPM-2-luciferase cells). On day 10, the mice were intraperitoneally injected with 4×10^6 human peripheral blood mononuclear cells (PBMC) from a normal, healthy donor. […] The mice were administered these Abs twice more on days 25 and 28, for a total of three doses. Tumor growth was assessed through day 61 by measuring tumor bioluminescence (BLI) in anesthetized animals. As a positive control, a group of mice (n=5) was given only OPM-2-luciferase cells, but not PBMC or antibody.
as §3, with “Implantation and measurement” for “To determine the in vivo efficacy”, “of” for “of anti-BCMA×anti-CD3 bispecific antibodies (Abs), a”, “tumors:” for “tumor study was performed.”, “NOD.Cg-Prkdc^scidII2rg^tm1Wkl/SzJ” for “NOD.Cg-Prkdc^scidII2rg^tm1Wjl/SzJ”
Measurement of xenogenic tumor growth: BLI imaging was used to measure tumor burden. Mice were injected IP with 150 mg/kg of the luciferase substrate D-luciferin suspended in PBS. Five minutes after this injection, BLI imaging of the mice was performed under isoflurane anesthesia using the Xenogen IVIS system. Image acquisition was carried out with the field of view at D, subject height of 1.5 cm, and medium binning level with automatic exposure time determined by the Living Image Software. BLI signals were extracted using Living Image software: regions of interest were drawn around each tumor mass and photon intensities were recorded as p/s/cm2/sr.

Sequence of monkey BCMA-MFC (as listed by the source): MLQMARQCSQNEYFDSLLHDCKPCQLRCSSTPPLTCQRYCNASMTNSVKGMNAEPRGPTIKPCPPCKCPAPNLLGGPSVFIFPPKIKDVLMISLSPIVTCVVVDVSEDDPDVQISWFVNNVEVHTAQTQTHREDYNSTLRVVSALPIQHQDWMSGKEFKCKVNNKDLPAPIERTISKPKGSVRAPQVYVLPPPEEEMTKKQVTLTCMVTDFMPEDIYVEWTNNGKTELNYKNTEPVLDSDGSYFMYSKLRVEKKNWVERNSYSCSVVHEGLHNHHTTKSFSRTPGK
Sequence of monkey BCMA-MMH (as listed by the source): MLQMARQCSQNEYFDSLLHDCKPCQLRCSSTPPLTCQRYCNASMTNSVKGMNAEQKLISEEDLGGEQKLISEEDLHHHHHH

Substance | ka (monkey BCMA-MFC) | kd (monkey BCMA-MFC) | ka (monkey BCMA-MMH) | kd (monkey BCMA-MMH) | S:N (highest RLU to lowest) [1] | S:N (highest RLU to lowest) [2] | S:N (highest RLU to lowest) [3] | S:N (highest RLU to lowest) [4] | Radiance [p/s/cm2^2/sr] 26 days post-implantation (mean ± SEM) [5] | Radiance [p/s/cm2^2/sr] 31 days post-implantation (mean ± SEM) [5] | Radiance [p/s/cm2^2/sr] 34 days post-implantation (mean ± SEM) [5] | Radiance [p/s/cm2^2/sr] 38 days post-implantation (mean ± SEM) [5] | Radiance [p/s/cm2^2/sr] 40 days post-implantation (mean ± SEM) [5] | Radiance [p/s/cm2^2/sr] 47 days post-implantation (mean ± SEM) [5] | Radiance [p/s/cm2^2/sr] 54 days post-implantation (mean ± SEM) [5] | Radiance [p/s/cm2^2/sr] 61 days post-implantation (mean ± SEM) [5] | tumor burden [5] | Radiance [p/s/cm2^2/sr] 5 days post-implantation (mean ± SEM) [5] | Radiance [p/s/cm2^2/sr] 11 days post-implantation (mean ± SEM) [5] | Radiance [p/s/cm2^2/sr] 20 days post-implantation (mean ± SEM) [5]
REGN5458: anti-BCMA×anti-CD3 bispecific antibody: mAb21581 BCMA heavy chain, mAb7221G CD3 heavy chain and common light chain; SEQ ID NOs 126, 127, 129 | 528000 M⁻¹ s⁻¹ | 8.8e-05 s⁻¹ | 182000 M⁻¹ s⁻¹ | 0.00909 s⁻¹ | 1 | 165 | 55 | 123 | 1.73E+06 ± 8.69E+05 p/s/cm2^2/sr | 3.50E+06 ± 2.42E+06 p/s/cm2^2/sr | 4.85E+06 ± 3.24E+06 p/s/cm2^2/sr | 5.30E+06 ± 3.44E+06 p/s/cm2^2/sr | 5.06E+06 ± 3.36E+06 p/s/cm2^2/sr | 7.76E+05 ± 7.85E+04 p/s/cm2^2/sr | 5.78E+05 ± 1.15E+05 p/s/cm2^2/sr | 5.23E+05 ± 4.10E+04 p/s/cm2^2/sr | reduced tumor burdens to background levels in the majority of animals | 5.87E+05 ± 2.40E+04 p/s/cm2^2/sr | 6.19E+05 ± 4.39E+04 p/s/cm2^2/sr | 1.81E+06 ± 2.37E+05 p/s/cm2^2/sr
REGN5459: anti-BCMA×anti-CD3 bispecific antibody: mAb21581 BCMA heavy chain, mAb7221G20 CD3 heavy chain and common light chain; SEQ ID NOs 126, 128, 129 | 482000 M⁻¹ s⁻¹ | 7.15e-05 s⁻¹ | 223000 M⁻¹ s⁻¹ | 0.00864 s⁻¹ | 1 | 120 | 42 | 78 | 1.28E+06 ± 7.36E+05 p/s/cm2^2/sr | 1.98E+06 ± 1.36E+06 p/s/cm2^2/sr | 4.24E+06 ± 3.69E+06 p/s/cm2^2/sr | 3.21E+06 ± 2.52E+06 p/s/cm2^2/sr | 3.84E+06 ± 3.34E+06 p/s/cm2^2/sr | 7.34E+05 ± 2.62E+04 p/s/cm2^2/sr | 6.41E+05 ± 5.96E+04 p/s/cm2^2/sr | 6.03E+05 ± 5.29E+04 p/s/cm2^2/sr | reduced tumor burdens to background levels in the majority of animals | 5.09E+05 ± 3.56E+04 p/s/cm2^2/sr | 6.45E+05 ± 2.39E+04 p/s/cm2^2/sr | 2.13E+06 ± 1.69E+05 p/s/cm2^2/sr
